Values after ≈ are worked out from the molar mass of the structure shown. Where two headings read alike, the source gives them in different places.
Assays:
MRSA USA300 = test: Bacterial viability assay; assay type: cell-based, Staphylococcus aureus; conditions: Staphylococcus aureus, 1 h, one hour in PBS, CFU, ± SEM
Procedure: (§1) Supplementary file pone.0097742.s003.doc: Table S1 Bacterial viability assays. Bacteria were grown at 37°C to mid-log phase (OD600 ∼0.4). The bacteria were diluted to approximately 10^4 to 10^5 colony forming units (CFU) per milliliter and added to a solution of phosphate buffered saline (PBS, 16 mM phosphate, 0.14 M NaCl, pH 7.2) containing the compound at varied concentrations. Samples were incubated at 37°C for one hour and then plated on Luria Bertani (LB) agar at appropriate dilutions in PBS. The plates were incubated overnight at 37°C and colonies enumerated the following day. IC50s were calculated from graphs of CFU as a function of compound concentration. Chlorhexidine was used as a positive control. […] (DOC) Click here for additional data file.
(§2) Bacterial viability assays. Bacteria were grown at 37°C to mid-log phase (OD600 ~0.4). The bacteria were diluted to approximately 10^4 to 10^5 colony forming units (CFU) per milliliter and added to a solution of phosphate buffered saline (PBS, 16 mM phosphate, 0.14 M NaCl, pH 7.2) containing the compound at varied concentrations. Samples were incubated at 37°C for one hour and then plated on Luria Bertani (LB) agar at appropriate dilutions in PBS. The plates were incubated overnight at 37°C and colonies enumerated the following day. IC50s were calculated from graphs of CFU as a function of compound concentration. Chlorhexidine was used as a positive control.

E. coli = test: Time-to-kill (kill curve) assay; assay type: cell-based, Escherichia coli
Procedure: (§3) Bacteria were cultured to mid-log phase (OD600 ∼0.4) in LB media with shaking and then diluted to approximately 10^4 to 10^5 CFU/mL. Bacteria were then treated with compound at the MIC, 2×MIC, and 4×MIC (as determined by the MIC assays). Over the course of 24 hours, bacteria were incubated at 37°C and aliquots removed at various time intervals, diluted, and plated on LB agar. Plated bacteria were incubated overnight at 37°C and CFU/mL were calculated for each time interval.

E. coli K91 = test: Bacterial viability assay; assay type: cell-based, Escherichia coli; conditions: Escherichia coli, 1 h, one hour in PBS, CFU, ± SEM
Procedure: as §1, §2

MRSA = test: Time-to-kill (kill curve) assay; assay type: cell-based, Staphylococcus aureus
Procedure: as §3

[1] = Cell toxicity assay (MTS); assay type: cell-based, human; conditions: human, MTS assay, concentration which killed 50% of the cells
Procedure: The HaCaT cell line was grown in Epilife medium (MEPI500Ca) with human keratinocyte growth supplement (Invitrogen, San Diego, CA). Both types of cells were harvested using Tryspin/EDTA and diluted to 1×10^5 cells per well in a 96-well plate. Ten concentrations covering five orders of magnitude were tested with six replicates per concentration. […] MTS/PMS solution (Promega, Madison, WI) was added to the wells and absorbance was measured at 490 nm two to four hours later. Data was analyzed using GraphPad Prism version 5.0 (GraphPad Software, La Jolla, CA) using a variable slope inhibition dose response curve.

P. aeruginosa PA01 = test: Bacterial viability assay; assay type: cell-based, Pseudomonas aeruginosa; conditions: Pseudomonas aeruginosa, 1 h, one hour in PBS, CFU, ± SEM
Procedure: as §1, §2

Balb/c mice = test: In vivo toxicity study (serum chemistry and enzyme levels); set-up: species or system mouse; conditions: i.p. 0.1 ml of 10, 50, 100 µM, blood two hours post injection, versus mock-treated control
Procedure: THAM-3ΦG was chosen for the in vivo challenge experiments, because it had the best combination of antibacterial activity and low toxicity (Tables 1–3). In vivo toxicity studies were carried out prior to the start of experiments in mice challenged with MRSA. Groups of three Balb/c mice each were injected i.p. with 0.1 ml of 0, 10, 50, and 100 µM THAM-3ФG in PBS. The highest in vivo dose represented 0.36 mg/kg. Blood was drawn from the mice at two hours post injection and submitted for a standard panel of serum chemistry and enzyme levels. The chemistry and enzyme levels were not elevated for any of the concentrations tested compared to the mock-treated control group (data not shown).

MRSA strain LAC, USA300 = test: Minimum bactericidal concentration; assay type: cell-based, Staphylococcus aureus; conditions: MHB, median, 3-log reduction of viable bacteria
Procedure: (§4) Minimum inhibitory concentration (MIC) values were determined for those compounds showing the most antibacterial activity in the bacterial viability assays (see Supplemental Materials) against each of the strains of bacteria using a microdilution method in 96 well plates with LB media according to guidelines published by the British Society for Antimicrobial Chemotherapy. Minimum bactericidal concentrations (MBC) were determined by plating 10 µL and 100 µL from each well showing no signs of growth after overnight incubation of the MIC plates and determining the minimum concentration showing a 3-log reduction of viable bacteria. MIC and MBC were also determined in cation-adjusted Mueller-Hinton broth (Hardy Diagnostics, Santa Maria, CA) for some compounds and strains.

E. faecalis MSU#10 = test: Bacterial viability assay; assay type: cell-based, Enterococcus faecalis; conditions: Enterococcus faecalis, 1 h
Procedure: as §1, §2

E. faecalis V583 = test: Bacterial viability assay; assay type: cell-based, Enterococcus faecalis; conditions: Enterococcus faecalis, 1 h, one hour in PBS, CFU, ± SEM
Procedure: as §1, §2

[2] = tested on: A. baumannii ATCC BAA1605; test: Bacterial viability assay; assay type: cell-based, Acinetobacter baumannii; conditions: Acinetobacter baumannii, ATCCBAA1605, 1 h, one hour in PBS, CFU, ± SEM
Procedure: as §1, §2

A. baumannii ATCC 19606 = test: Bacterial viability assay; assay type: cell-based, Acinetobacter baumannii; conditions: Acinetobacter baumannii, ATCC19606, 1 h, one hour in PBS, CFU, ± SEM
Procedure: as §1, §2

all of the pathogens = test: MIC against all of the pathogens (LB); assay type: cell-based; conditions: complex medium (LB), actively growing bacteria
Procedure: as §4

[3] = MDA-MB-231 breast cancer cells (ATCC HTB-26), MDA-231

N=C(NCCCCCCNc1nc(NCCCCCCNC(=N)Nc2ccccc2)nc(NCCCCCCNC(=N)Nc2ccccc2)n1)Nc1ccccc1 [THAM-3ΦG, Trishexylaminomelamine trisphenylguanide]
IC50 (MRSA USA300): 3.9 ± 0.5 µM
time to kill all the cells (E. coli; 4×MIC (32 mg/L)): 24 h
reduction in CFU/mL (E. coli; 4×MIC (32 mg/L), only after 4 hours of treatment): > 3 log
IC50 (E. coli K91): 3.8 ± 1.6 µM
reduction in CFU/mL (MRSA; 4×MIC, within 4 hours post treatment): 3 log
time after which no viable cells remained (MRSA; at the MIC): 24 h
CC50 ([1]; HaCaT keratinocytes): 14 µg/mL (≈ 18 µM)
CC50 [1, 3]: 7.6 µg/mL (≈ 9.77 µM)
IC50 (P. aeruginosa PA01): 4.5 ± 2.5 µM
serum chemistry and enzyme levels (Balb/c mice): not elevated
MBC (MRSA strain LAC, USA300): 1 µg/mL (≈ 1.29 µM)
IC50 (E. faecalis MSU#10; E. faecalis MSU#10, one hour in PBS, CFU, ± SEM, read-out: IC50): 2.8 ± 0.6 µM
IC50 (E. faecalis V583): 65 ± 1 µM
IC50 [2]: 4.3 ± 1 µM
IC50 (A. baumannii ATCC 19606): 0.86 ± 0.25 µM

[H]/N=C(\N/C(=N/[H])NCCCCCCNC(=N)NC(=N)Nc1ccc(Cl)cc1)Nc1ccc(Cl)cc1 [Chlorhexidine, chlorhexidine, reference compound]
IC50 (MRSA USA300): 13 µM
time after which no viable cells remained (E. coli; 2 mg/L): 6 h
reduction in CFU/mL (E. coli; 2 mg/L, within 4 hours of treatment): > 3 log
IC50 (E. coli K91): 1.7 ± 0.6 µM
time by which bactericidal activity was seen (MRSA; 1× to 4×MIC): ≤ 24 h
CC50 ([1]; HaCaT keratinocytes): 1.9 µg/mL (≈ 3.76 µM)
CC50 [1, 3]: 2.6 µg/mL (≈ 5.14 µM)
IC50 (P. aeruginosa PA01): 2.6 ± 0.5 µM
MBC (MRSA strain LAC, USA300): 0.89 µg/mL (≈ 1.76 µM)
MIC (all of the pathogens): ≤ 16 µg/mL
IC50 (E. faecalis MSU#10): 14 ± 6 µM
IC50 (E. faecalis V583): 16 ± 6 µM
IC50 [2]: 0.78 ± 0.31 µM
IC50 (A. baumannii ATCC 19606): 1.3 ± 0.2 µM

Reference: publication PMC4026384, “Antibacterial Activity of THAM Trisphenylguanide against Methicillin-Resistant Staphylococcus aureus” (PLoS ONE, 2014)
